solubility, microsomal CLint and IC50 data for 27 compounds are collected here from patent publication US9067881B2, “4-tolyl-ethynyl-octahydro-indole-1-ester derivatives” (NOVARTIS AG, priority 2011, dated 2015).

Converted amounts (≈) assume the structure as drawn. Where only a bound is given, the exact number is not on record here.

Series [1] is described as follows: Solubility in Cl free phosphate buffer pH 6.8. In kind it is physicochemical. As to conditions: aqueous buffer; Cl free phosphate buffer (0.067 M) pH 6.8.
Series [2] can be described thus: In-vitro clearance in rat liver microsomes (metabolic stability, compound depletion). (Liver microsomes are vesicles of endoplasmic reticulum, rich in cytochrome P450 enzymes.)
Series [3] can be described thus: In-vitro clearance in human liver microsomes (metabolic stability, compound depletion).
The target of another series is T1, human mGluR5 (Homo sapiens, UniProt P41594).
T1 construct: expressed in transfected cells
In words: In-vitro activity of mGluR5 antagonists (inhibition of agonist induced elevation of intracellular Ca2+ or inositol phosphate turnover at recombinant human mGluR5). The series is classed as cell-based. The settings on record: recombinant human mGluR5, antagonism.

T1 sequence (P41594 21-1180 isoform P41594-2 limits assumed): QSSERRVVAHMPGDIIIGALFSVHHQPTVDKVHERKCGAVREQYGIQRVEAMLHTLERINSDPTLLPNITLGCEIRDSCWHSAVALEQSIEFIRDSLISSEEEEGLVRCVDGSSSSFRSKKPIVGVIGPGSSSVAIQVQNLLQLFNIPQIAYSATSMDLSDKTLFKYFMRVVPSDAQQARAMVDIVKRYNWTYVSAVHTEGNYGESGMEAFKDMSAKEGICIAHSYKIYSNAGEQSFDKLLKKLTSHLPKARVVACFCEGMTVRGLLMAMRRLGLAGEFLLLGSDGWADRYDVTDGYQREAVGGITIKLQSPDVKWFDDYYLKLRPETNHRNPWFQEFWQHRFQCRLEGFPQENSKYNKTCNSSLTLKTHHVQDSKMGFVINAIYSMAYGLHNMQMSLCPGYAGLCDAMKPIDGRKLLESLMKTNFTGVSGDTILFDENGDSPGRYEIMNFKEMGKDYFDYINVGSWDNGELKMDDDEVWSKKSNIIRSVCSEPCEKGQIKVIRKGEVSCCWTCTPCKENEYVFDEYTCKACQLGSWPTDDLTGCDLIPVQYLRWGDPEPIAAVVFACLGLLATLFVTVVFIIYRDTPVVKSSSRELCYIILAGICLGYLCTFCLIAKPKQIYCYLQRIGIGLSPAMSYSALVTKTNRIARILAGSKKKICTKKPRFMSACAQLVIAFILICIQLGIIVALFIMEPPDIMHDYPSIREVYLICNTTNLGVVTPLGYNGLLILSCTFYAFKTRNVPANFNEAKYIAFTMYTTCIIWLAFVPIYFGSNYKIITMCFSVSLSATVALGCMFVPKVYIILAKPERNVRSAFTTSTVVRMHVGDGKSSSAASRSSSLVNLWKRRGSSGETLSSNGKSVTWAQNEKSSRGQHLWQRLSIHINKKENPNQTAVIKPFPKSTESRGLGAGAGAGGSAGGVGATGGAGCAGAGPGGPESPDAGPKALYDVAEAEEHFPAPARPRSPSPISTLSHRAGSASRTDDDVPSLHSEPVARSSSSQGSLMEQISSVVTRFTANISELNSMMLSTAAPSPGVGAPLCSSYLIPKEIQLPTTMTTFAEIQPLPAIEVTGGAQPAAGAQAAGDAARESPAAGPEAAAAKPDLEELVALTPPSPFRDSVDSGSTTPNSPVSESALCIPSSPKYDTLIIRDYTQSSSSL

On to `CCC(=O)O[C@@]1(C#Cc2cccc(C)c2)CCC[C@@H]2[C@H]1CCN2C(=O)OC` [Example 14, (3aR,4S,7aR)-4-Propionyloxy-4-m-tolylethynyl-octahydro-indole-1-carboxylic acid methyl ester], for which the solubility (in general, the dissolved amount per volume that the medium holds) in series [1] is 9 µg/mL (≈ 24.4 µM). In series [2], the microsomal CLint (in general, the rate of metabolic loss divided by the concentration) at 1 μM worked out at 3.4 µL/min/mg.
In turn, `COC(=O)N1CC[C@@H]2[C@H]1CCC[C@@]2(O)C#Cc1cccc(C)c1` [Example 1.0, 4-hydroxy-4-m-tolylethynyl-octahydro-indole-1-carboxylic acid methyl ester, reference compound] registered a solubility in series [1] of 51 µg/mL (≈ 163 µM). Also, the results for the microsomal CLint at 1 μM in series [2] and in series [3] were 277 µL/min/mg and 113 µL/min/mg, respectively.
In turn, `CCCCCCCCC(=O)O[C@@]1(C#Cc2cccc(C)c2)CCC[C@@H]2[C@H]1CCN2C(=O)OC` [Example 24, (3aR,4S,7aR)-4-Nonanoyloxy-4-m-tolylethynyl-octahydro-indole-1-carboxylic acid methyl ester] registered a solubility in series [1] below 2 µg/mL. Further, the microsomal CLint at 1 μM in series [2] was determined as 32 µL/min/mg.
The like results for `CCCCCCCCCCCC(=O)O[C@@]1(C#Cc2cccc(C)c2)CCC[C@@H]2[C@H]1CCN2C(=O)OC` [Example 19, (3aR,4S,7aR)-4-Dodecanoyloxy-4-m-tolylethynyl-octahydro-indole-1-carboxylic acid methyl ester] were, in that order, below 2 µg/mL and 32 µL/min/mg.
For the compound `COC(=O)N1CC[C@@H]2[C@H]1CCC[C@]2(C#Cc1cccc(C)c1)OC(=O)CCCN(C)C` [Example 3, (3aR,4S,7aR)-4-(4-Dimethylamino-butyryloxy)-4-m-tolylethynyl-octahydro-indole-1-carboxylic acid methyl ester], the microsomal CLint at 1 μM in series [2] amounted to 730 µL/min/mg; in series [3] it was 283 µL/min/mg.
`CCCCCCCCCC(=O)O[C@@]1(C#Cc2cccc(C)c2)CCC[C@@H]2[C@H]1CCN2C(=O)OC` [Example 20, (3aR,4S,7aR)-4-Decanoyloxy-4-m-tolylethynyl-octahydro-indole-1-carboxylic acid methyl ester]: the solubility in series [1] is below 2 µg/mL. For the same compound, the microsomal CLint at 1 μM in series [2] worked out at 5.4 µL/min/mg.
As to `CCCCCCCCCCCCCC(=O)O[C@@]1(C#Cc2cccc(C)c2)CCC[C@@H]2[C@H]1CCN2C(=O)OC` [Example 16, (3aR,4S,7aR)-4-Tetradecanoyloxy-4-m-tolylethynyl-octahydro-indole-1-carboxylic acid methyl ester], the solubility in series [1] was below 2 µg/mL. The microsomal CLint at 1 μM in series [2] came out at 26 µL/min/mg; in series [3], 33 µL/min/mg.
Turning to `COC(=O)N1CC[C@@H]2[C@H]1CCC[C@]2(C#Cc1cccc(C)c1)OC(=O)c1cccnc1` [Example 51, (3aR,4S,7aR)-methyl 4-(nicotinoyloxy)-4-(m-tolylethynyl)octahydro-1H-indole-1-carboxylate], in series [1], the solubility is below 2 µg/mL. In series [2], the intrinsic metabolic clearance (microsomal CLint) at 1 μM was found to be 478 µL/min/mg.
In the case of `CCCCCCCCCCCCC(=O)O[C@@]1(C#Cc2cccc(C)c2)CCC[C@@H]2[C@H]1CCN2C(=O)OC` [Example 25, (3aR,4S,7aR)-4-m-Tolylethynyl-4-tridecanoyloxy-octahydro-indole-1-carboxylic acid methyl ester], the solubility in series [1] is below 2 µg/mL. Also, the microsomal CLint at 1 μM in series [2] was determined as 32 µL/min/mg.
The like results for `COC(=O)N1CC[C@@H]2[C@H]1CCC[C@]2(C#Cc1cccc(C)c1)OC(=O)c1ccncc1` [Example 45, (3aR,4S,7aR)-methyl 4-(isonicotinoyloxy)-4-(m-tolylethynyl)octahydro-1H-indole-1-carboxylate] were, in that order, below 2 µg/mL and 385 µL/min/mg.
Consider `COC(=O)N1CC[C@@H]2[C@H]1CCC[C@]2(C#Cc1cccc(C)c1)OC(=O)[C@@H](N)c1ccccc1` [Example 41, (3aR,4S,7aR)-methyl 4-((S)-2-amino-2-phenylacetoxy)-4-(m-tolylethynyl)octahydro-1H-indole-1-carboxylate], for which the solubility in series [1] stood at 3 µg/mL (≈ 6.72 µM). Also, the microsomal CLint at 1 μM was determined as 579 µL/min/mg in series [2] and 693 µL/min/mg in series [3].
`COC(=O)N1CC[C@@H]2[C@H]1CCC[C@]2(C#Cc1cccc(C)c1)OC(=O)c1ccccn1` [Example 54, (3aR,4S,7aR)-4-(Pyridine-2-carbonyloxy)-4-m-tolylethynyl-octahydro-indole-1-carboxylic acid methyl ester] gave a solubility in series [1] of 2 µg/mL (≈ 4.78 µM). This compound yielded a microsomal CLint at 1 μM in series [2] of 167 µL/min/mg.
As for `CCOC(=O)N1CC[C@@H]2[C@H]1CCC[C@@]2(O)C#Cc1cccc(C)c1` [Example 2.0], the IC50 (usually the point on the concentration scale where inhibition reaches its midpoint) on human mGluR5 amounted to 42 nM.
Consider `COC(=O)N1CC[C@@H]2[C@H]1CCC[C@]2(C#Cc1cccc(C)c1)OC(=O)CN(C)C` [Example 1, (3aR,4S,7aR)-4-(2-Dimethylamino-acetoxy)-4-m-tolylethynyl-octahydro-indole-1-carboxylic acid methyl ester], for which the values for the microsomal CLint at 1 μM in series [2] and in series [3] were 195 µL/min/mg and 14 µL/min/mg, respectively.
The corresponding values for `CNCC(=O)O[C@@]1(C#Cc2cccc(C)c2)CCC[C@@H]2[C@H]1CCN2C(=O)OC` [Example 7, (3aR,4S,7aR)-4-(2-Methylamino-acetoxy)-4-m-tolylethynyl-octahydro-indole-1-carboxylic acid methyl ester] are 346 µL/min/mg and 433 µL/min/mg.
The compound `COC(=O)N1CC[C@@H]2[C@H]1CCC[C@]2(C#Cc1cccc(C)c1)OC(=O)CN1CCOCC1` [Example 26, (3aR,4S,7aR)-4-(2-Morpholin-4-yl-acetoxy)-4-m-tolylethynyl-octahydro-indole-1-carboxylic acid methyl ester] gave a solubility in series [1] of 138 µg/mL (≈ 313 µM). Also, the figures for the microsomal CLint at 1 μM in series [2] and in series [3] were 533 µL/min/mg and 770 µL/min/mg, respectively.
As to `COC(=O)N1CC[C@@H]2[C@H]1CCC[C@]2(C#Cc1cccc(C)c1)OC(=O)CN` [Example 8, (3aR,4S,7aR)-4-(2-Amino-acetoxy)-4-m-tolylethynyl-octahydro-indole-1-carboxylic acid methyl ester], the solubility in series [1] was 125 µg/mL (≈ 337 µM). Moreover, the microsomal CLint at 1 μM in series [2] came to 87 µL/min/mg; in series [3], 187 µL/min/mg.
In series [2], `COC(=O)N1CC[C@@H]2[C@H]1CCC[C@]2(C#Cc1cccc(C)c1)OC(=O)c1ccc(Br)cc1` [Example 48, (3aR,4S,7aR)-methyl 4-(4-bromobenzoyloxy)-4-(m-tolylethynyl)octahydro-1H-indole-1-carboxylate] came in with a microsomal CLint at 1 μM of 26 µL/min/mg.
Turning to `COC(=O)N1CC[C@@H]2[C@H]1CCC[C@]2(C#Cc1cccc(C)c1)OC(=O)CCN1CCCC1` [Example 29, (3aR,4S,7aR)-4-(3-Pyrrolidin-1-yl-propionyloxy)-4-m-tolylethynyl-octahydro-indole-1-carboxylic acid methyl ester], the solubility in series [1] was found to be 439 µg/mL (≈ 1000 µM). Also, the results for the microsomal CLint at 1 μM in series [2] and in series [3] were 730 µL/min/mg and 660 µL/min/mg, respectively.
On to `COC(=O)N1CC[C@@H]2[C@H]1CCC[C@]2(C#Cc1cccc(C)c1)OC(=O)[C@@H](N)CC(C)C` [Example 5, (3aR,4S,7aR)-4-((S)-2-Amino-4-methyl-pentanoyloxy)-4-m-tolylethynyl-octahydro-indole-1-carboxylic acid methyl ester], for which the microsomal CLint at 1 μM in series [2] stood at 48 µL/min/mg.
The compound `CN[C@@H](C)C(=O)O[C@@]1(C#Cc2cccc(C)c2)CCC[C@@H]2[C@H]1CCN2C(=O)OC` [Example 35, (3aR,4S,7aR)-4-((S)-2-Methylamino-propionyloxy)-4-m-tolylethynyl-octahydro-indole-1-carboxylic acid methyl ester] showed a microsomal CLint at 1 μM in series [2] of 50 µL/min/mg.
`CCCCCCC(=O)O[C@@]1(C#Cc2cccc(C)c2)CCC[C@@H]2[C@H]1CCN2C(=O)OC` [Example 23, (3aR,4S,7aR)-4-Heptanoyloxy-4-m-tolylethynyl-octahydro-indole-1-carboxylic acid methyl ester] displayed a solubility in series [1] below 2 µg/mL. This compound came in with a microsomal CLint at 1 μM in series [2] of 3.4 µL/min/mg.
Turning to `COC(=O)N1CC[C@@H]2[C@H]1CCC[C@]2(C#Cc1cccc(C)c1)OC(=O)c1cccc(C)c1` [Example 46, (3aR,4S,7aR)-methyl 4-(3-methylbenzoyloxy)-4-(m-tolylethynyl)octahydro-1H-indole-1-carboxylate], the intrinsic clearance (microsomal CLint) at 1 μM in series [2] was 4.4 µL/min/mg.
`COC(=O)N1CC[C@@H]2[C@H]1CCC[C@]2(C#Cc1cccc(C)c1)OC(=O)CCN1CCOCC1` [Example 27, (3aR,4S,7aR)-4-(3-Morpholin-4-yl-propionyloxy)-4-m-tolylethynyl-octahydro-indole-1-carboxylic acid methyl ester] had a solubility in series [1] of 108 µg/mL (≈ 238 µM). Further, the microsomal CLint at 1 μM in series [2] came to 533 µL/min/mg; in series [3], 94 µL/min/mg.
On to `COC(=O)N1CC[C@@H]2[C@H]1CCC[C@]2(C#Cc1cccc(C)c1)OC(=O)CCN` [Example 40, (3aR,4S,7aR)-methyl 4-(3-aminopropanoyloxy)-4-(m-tolylethynyl)octahydro-1H-indole-1-carboxylate], for which the microsomal CLint at 1 μM in series [2] is 302 µL/min/mg; in series [3], 36 µL/min/mg.
In series [1], `CCCN(CCC)C(=O)CCC(=O)O[C@@]1(C#Cc2cccc(C)c2)CCC[C@@H]2[C@H]1CCN2C(=O)OC` [Example 63, (3aR,4S,7aR)-methyl 4-(4-(dipropylamino)-4-oxobutanoyloxy)-4-(m-tolylethynyl)octahydro-1H-indole-1-carboxylate] yielded a solubility of 43 µg/mL (≈ 86.6 µM). In series [2], this compound gave a microsomal CLint at 1 μM of 26 µL/min/mg.
Take `COC(=O)N1CC[C@@H]2[C@H]1CCC[C@]2(C#Cc1cccc(C)c1)OC(=O)[C@H](C)N` [Example 9, (3aR,4S,7aR)-4-((S)-2-Amino-propionyloxy)-4-m-tolylethynyl-octahydro-indole-1-carboxylic acid methyl ester]: the microsomal CLint at 1 μM in series [2] was 355 µL/min/mg; in series [3], 315 µL/min/mg.
